# From US20220387408A1, “USE OF MAST CELL STABILIZER FOR THE TREATMENT OF HEART FAILURE WITH PRESERVED EJECTION FRACTION” (INSERM (INSTITUT NATIONAL DE LA SANTÉ ET DE LA RECHERCHE …, priority 2019, published 2022)
# Entries after “also recorded” stand apart in the source; their conditions may differ.
# What was measured:
# Type in all cases: in vivo
# [1] = system: Lepr^db/db female mice; experiment: LV end diastolic pressure measurement by pressure catheter in Lepr^db/db mice; conditions: 2 month old Lepr^db/db female mice
# Experimental: Lepr^db mice (BKS.Cg-Dock7m/+ Lepr^db/+J) were obtained from Charles River laboratories and bred together to obtain Lepr^db/db and control Lepr^db/+ mice. To prevent mast cell degranulation, mice were treated with 50 mg/kg/day cromolyn sodium (Abcam) via intra-peritoneal injections for 28 days. Untreated mice received 0.9% NaCl daily intra-peritoneal injections. […] LV diastolic pressure measurement was assessed using pressure—volume conductance catheter technique. Briefly, mice will be anesthetized with Isoflurane. A Scisense pressure catheter (Transonic) will be inserted into the LV through the common carotid artery. Pressure will be recorded using […] LabChart software. End diastolic pressure, dP/dt minimum and maximum, Tau and heart rate were automatically calculated by a curve fit through end-systolic and end-diastolic points on the pressure plot.
# [2] = system: Lepr^db/db female mice; experiment: Echocardiography (ejection fraction, LV wall thickness) in Lepr^db/db mice; conditions: data not shown
# Description: Lepr^db mice (BKS.Cg-Dock7m/+ Lepr^db/+J) were obtained from Charles River laboratories and bred together to obtain Lepr^db/db and control Lepr^db/+ mice.
# […] Untreated mice received 0.9% NaCl daily intra-peritoneal injections.
# Left-ventricular ejection fraction and LV dimension will be measured on a high-resolution echocardiographic system equipped with a 30-MHz mechanical transducer (VEVO 2100, VisualSonics Inc.) as previously described 13,14. Mice were anchored to a warming platform in a supine position, limbs were taped to the echocardiograph electrodes, and chests were shaved and cleaned with a chemical hair remover to minimize ultrasound attenuation. UNI′GEL ECG (Asept Inmed), from which all air bubbles had been expelled, was applied to the thorax to optimize the visibility of the cardiac chambers. Ejection fractions were evaluated by planimetry as recommended (Schiller et al. 1989). Two-dimensional, parasternal long-axis and short-axis views were acquired, and the endocardial area of each frame was calculated by tracing the endocardial limits in the long-axis view, then the minimal and maximal areas were used to determine the left-ventricular end-systolic (ESV) and end-diastolic (EDV) volumes, respectively. The system software uses a formula based on a cylindrical-hemiellipsoid model (volume=8·area^2/3π/length) 15. The left-ventricular ejection fraction was derived from the following formula: (EDV−ESV)/EDV*100. The cardiac wall thickness (Left ventricular posterior wall (LVPW), Inter-ventricular septum (IVS) and left ventricular internal diameter (LVID) were calculated by tracing wall limits in both the long and short axis views.
# [3] = system: Lepr^db/db female mice; experiment: Immuno-histological assessment of the heart (capillaries, albumin, CD45+ leucocytes, mast cells, cardiomyocyte size) in Lepr^db/db mice
# Experimental: Lepr^db mice (BKS.Cg-Dock7m/+ Lepr^db/+J) were obtained from Charles River laboratories and bred together to obtain Lepr^db/db and control Lepr^db/+ mice. To prevent mast cell degranulation, mice were treated with 50 mg/kg/day cromolyn sodium (Abcam) via intra-peritoneal injections for 28 days. Untreated mice received 0.9% NaCl daily intra-peritoneal injections. […] Prior to staining, heart were stopped in diastole using KCl, perfused and then fixed in 10% formalin for 4 hours, paraffin embedded and cut into 7 μm thick sections. Alternatively, heart were fresh frozen in OCT, then cut into 7 μm thick sections. ECs were identified using rat anti-CD31 antibodies (Histonova, cat #DIA-310). Albumin was stained using sheep anti-albumin antibodies (Abcam, Cat #ab8940). Pan-leucocytes were identified using rat anti-mouse CD45 antibodies (BD Pharmingen Inc, Cat #550539). For immunofluorescence analyzes, primary antibodies were resolved with Alexa Fluor®-conjugated secondary polyclonal antibodies (Invitrogen, Cat #[NT]-10037) and nuclei were counterstained with DAPI (1/5000). Negative controls using secondary antibodies only were done to check for antibody specificity. Capillary density (CD31+ vessels) was quantified in 4 pictures taken under ×260 magnification in areas where cardiomyocytes were oriented transversally. To assess the mean capillary diameter, the diameter of 10 capillary randomly chosen in each picture was measured via Image J. Inflammatory cell density (CD45+) was quantified in 8 pictures randomly taken under ×260 magnification. All pictures and quantifications (done using ImageJ/Fiji v2.0.0-rc-59 software (National Institute of Health, USA)) were performed by a blinded investigator. More precisely, all samples were assigned a random number prior to animal sacrifice, data collection and analysis. At the end of the experiment, the genotype/treatment for each animal was unveiled to allow data comparison and experimental conclusion.
# [4] = system: Lepr^db/db female mice; experiment: Heart weight in Lepr^db/db mice; conditions: 50 mg/kg/day cromolyn sodium for 28 days; data not shown
# Experimental: To prevent mast cell degranulation, mice were treated with 50 mg/kg/day cromolyn sodium (Abcam) via intra-peritoneal injections for 28 days. Untreated mice received 0.9% NaCl daily intra-peritoneal injections.
# [5] = 50 mg/kg/day cromolyn sodium for 28 days
SMILES,"End diastolic pressure (EDP) ([1]; 4 mg/kg/day cetirizine orally (drinking water) for 28 days vs vehicle, FIG. 1B)",Ejection fraction ([2]; 4 mg/kg/day cetirizine orally for 28 days),"End diastolic pressure (EDP) ([1]; 50 mg/kg/day cromolyn sodium intra-peritoneal for 28 days vs vehicle, FIG. 1A)","End diastolic pressure (EDP) ([1]; 50 mg/kg/day cromolyn sodium intra-peritoneal for 28 days vs vehicle, FIG. 1A, listed as Cromolyn Sodium)","End diastolic pressure (EDP) ([1]; 50 mg/kg/day cromolyn sodium intra-peritoneal for 28 days vs vehicle, FIG. 1A, listed as Cromolyn sodium)","Ejection fraction [2, 5]","LV posterior wall thickness [2, 5]","Cardiac microvessel density (CD31+ vessels/mm^2) ([3]; 50 mg/kg/day cromolyn sodium for 28 days vs vehicle, FIG. 2A)","Mean cardiac capillary diameter ([3]; 50 mg/kg/day cromolyn sodium for 28 days vs vehicle, FIG. 2B)","Capillary permeability (albumin extravasation, albumin+ surface area) ([3]; 50 mg/kg/day cromolyn sodium for 28 days vs vehicle, FIG. 2C)","CD45+ leucocyte recruitment (CD45+ cells/mm^2) ([3]; 50 mg/kg/day cromolyn sodium for 28 days vs vehicle, FIG. 2D)","Percentage of degranulating mast cells in the heart ([3]; 50 mg/kg/day cromolyn sodium for 28 days vs vehicle, data not shown)","Mean cardiomyocyte size ([3]; 50 mg/kg/day cromolyn sodium for 28 days, data not shown)",Heart weight [4]
O=C(O)COCCN1CCN(C(c2ccccc2)c2ccc(Cl)cc2)CC1 (centres unmarked) [cetirizine],significantly decreased,not modulated,–,–,–,–,–,–,–,–,–,–,–,–
O=C(O)c1cc(=O)c2c(OCC(O)COc3cccc4oc(C(=O)O)cc(=O)c34)cccc2o1 [cromolyn sodium],–,–,significantly decreased; also recorded: prevents increased EDP,prevents the occurrence of diastolic dysfunction,significantly reduced,not modulated,did neither modify,did not modify,did reduce,decreased,decreases; also recorded: significantly decreased,did decrease,did neither modify,did neither modify
